Measurements published in patent US20230391785A1, “NITROGEN-CONTAINING HETEROCYCLIC COMPOUND, METHOD FOR PREPARING SAME AND USE OF SAME” (280 Bio, Inc., priority 2021, published 2023).
pIC50: −log10 of the molar value. Like-named read-outs stand apart in the source and are kept apart here.

Assays:
Format in all cases: cell-based
[1] = tested on: AGS gastric cancer cell line (KRAS G12D mutation); assay: Proliferation inhibition measured by CTG (CellTiter Glo), AGS; conditions: Table 3; CTG, 120 hours incubation; class symbol; read-out: IC50 (AGS)
Excerpt: (§1) NCI-H358 is a human non-small cell lung cancer cell line with KRAS G12C mutation; PANC-1 and AsPC-1 are pancreatic cancer cell lines with KRAS G12D mutation; AGS is a gastric cancer cell line with KRAS G12D mutation; A427 is a lung cancer cell line with KRAS G12D mutation; THP-1 is a leukemia cell line with NRAS G12D mutation; Hs 578T is a breast cancer cell line with HRAS G12D mutation; SW480 is a colon cancer cell lines with KRAS G12V mutation; A375 is a wild type malignant melanoma cell line. The proliferation inhibitory effect of the compounds on various mutations was evaluated by determining the proliferation inhibitory activity of the compounds on these cell lines.
(§2) The assay was conducted on either 384-well plates or 96-well plates. The procedures are as follows:
(§3) The cell suspensions were added to 384- or 96-well plates (384-well plate: 40 μL; 96-well plate: […]) except for peripheral wells. The plates were incubated in a carbon dioxide incubator overnight. Prepared compounds (10 concentration gradients by serial 3-fold dilution) were added to the wells. The cell plates were incubated in a carbon dioxide incubator for 120 hours. CellTiter Glo reagent (384 well plate: 25 μL; 96 well plate: 100 μL) was added to the 384- or 96-well plates. The plates were shaken for 10 minutes away from light, and incubated for 10 minutes. The plates were read by EnVision system. Inhibition curves were plotted using XLFit and IC50 values were calculated. “IC50>10 μM” is denoted by “*”, “10 μM≥IC50>1 μM” is denoted by “**”, “1 μM≥IC50>100 nM” is denoted by “***”, and “IC50≤100 nM” is denoted by “****”.

[2] = tested on: NCI-H358 cells (KRAS G12C mutation); assay: Proliferation inhibition measured by CTG (CellTiter Glo), NCI-H358; conditions: Homo sapiens, 120 hours incubation, class symbol, read-out: IC50 (H358)
Excerpt: as §1, §2, §3

[3] = tested on: A375 wild type malignant melanoma cell line; assay: Proliferation inhibition measured by CTG (CellTiter Glo), A375; conditions: Homo sapiens, A-375, CTG, 120 hours incubation, class symbol, read-out: IC50 (A375)
Excerpt: as §1, §2, §3

[4] = tested on: SW480 colon cancer cell line (KRAS G12V mutation); assay: Proliferation inhibition measured by CTG (CellTiter Glo), SW480; conditions: Homo sapiens, Table 3, 120 hours incubation, class symbol, read-out: IC50 (SW480)
Excerpt: as §1, §2, §3

[5] = tested on: AsPC-1 pancreatic cancer cell line (KRAS G12D mutation); assay: Proliferation inhibition measured by CTG (CellTiter Glo), AsPC-1; conditions: Homo sapiens, ASPC1; Table 1; CTG, 120 hours incubation; class symbol
Excerpt: as §1, §2, §3

Structure (SMILES) | pIC50 [1] | pIC50 ([2]; Table 3, CTG) | pIC50 ([3]; Table 3) | pIC50 [4] | pIC50 ([2]; Table 1, CTG) | pIC50 ([3]; Table 1) | pIC50 [5]
C[C@@H]1Cn2cnc(F)c2CN1c1nc(OC[C@@H]2CCCN2C)nc2cc(-c3cccc4cccc(Cl)c34)ccc12 [Compound 88] | ≥ 7.00 | ≥ 7.00 | 6.00 to 7.00 | ≥ 7.00 |  |  | 
Cc1ncc2n1CCN(c1nc(OC[C@@H]3CCCN3C)nc3c1CCN(c1cccc4cccc(Cl)c14)C3)C2 [Compound 5] |  |  |  |  | 5.00 to 6.00 | 5.00 to 6.00 | 5.00 to 6.00
C[C@@H]1Cn2cnc(F)c2CN1c1nc(OC[C@@H]2CCCN2C)nc2c1CCN(c1cc(N)cc3cccc(Cl)c13)C2 [Compound 110] | ≥ 7.00 | ≥ 7.00 | ≥ 7.00 | ≥ 7.00 |  |  | 
C[C@@H]1Cn2cncc2CN1c1nc(O[C@@H]2CCCN(C)C2)nc2c1CCN(c1cccc3cccc(Cl)c13)C2 [Compound 60] | 6.00 to 7.00 | 6.00 to 7.00 | 5.00 to 6.00 | 6.00 to 7.00 |  |  | 
C[C@@H]1Cn2cnc(F)c2CN1c1nc(OC[C@@H]2CCCCN2C)nc2c1CCN(c1cccc3cccc(Cl)c13)C2 [Compound 99] | ≥ 7.00 | ≥ 7.00 | ≥ 7.00 | ≥ 7.00 |  |  | 
C[C@@H]1Cn2cncc2CN1c1nc(OC[C@@H]2CCCN2C)nc2c1CCN(c1cc(OC(=O)N(C)C)cc3cccc(Cl)c13)C2 [Compound 82] | ≥ 7.00 | 6.00 to 7.00 | 6.00 to 7.00 | 6.00 to 7.00 |  |  | 
CC(=O)Nc1cc(N2CCc3c(nc(OC[C@@H]4CCCN4C)nc3N3Cc4c(F)ncn4C[C@H]3C)C2)c2c(Cl)cccc2c1 [Compound 111] | 5.00 to 6.00 | 5.00 to 6.00 | 5.00 to 6.00 | 6.00 to 7.00 |  |  | 
C[C@@H]1Cn2cnc(F)c2CN1c1nc(OC[C@@H]2CCCN2C)nc2c1CCN(c1cccc3cccc(F)c13)C2 [Compound 106] | ≥ 7.00 | ≥ 7.00 | ≥ 7.00 | ≥ 7.00 |  |  | 
CN1CCC[C@H]1COc1nc2c(c(N3CCn4c(cnc4Br)C3)n1)CCN(c1cccc3cccc(Cl)c13)C2 [Compound 49] | 6.00 to 7.00 | 6.00 to 7.00 | 5.00 to 6.00 | 5.00 to 6.00 |  |  | 
C[C@@H]1Cn2cncc2CN1c1nc(OC[C@H]2CCCN2C)nc2c1CCN(c1cccc3cccc(Cl)c13)C2 [Compound 58] | ≥ 7.00 | ≥ 7.00 | 6.00 to 7.00 | ≥ 7.00 |  |  | 
C[C@@H]1Cn2cnc(F)c2CN1c1nc(OC[C@@H]2CCCN2C)nc2c1CCN(c1cc(NS(C)(=O)=O)cc3cccc(Cl)c13)C2 [Compound 112] | 6.00 to 7.00 | 5.00 to 6.00 | 5.00 to 6.00 | 6.00 to 7.00 |  |  | 
CN1CCC[C@H]1COc1nc2c(c(N3CCn4c(cnc4C4CC4)C3)n1)CCN(c1cccc3cccc(Cl)c13)C2 [Compound 53] | 5.00 to 6.00 | 5.00 to 6.00 | 5.00 to 6.00 | 5.00 to 6.00 |  |  | 
C[C@@H]1Cn2cnc(F)c2CN1c1nc(OC[C@@H]2CCCN2C)nc2c1CCN(c1cc(O)c(Cl)c3cccc(Cl)c13)C2 [Compound 105] | ≥ 7.00 | ≥ 7.00 | ≥ 7.00 | ≥ 7.00 |  |  | 
C[C@@H]1Cn2cncc2CN1c1nc(OC[C@@H]2CCCN2C)nc2c1CCN(c1cc(O)cc3ccccc13)C2 [Compound 66] | ≥ 7.00 | ≥ 7.00 | 6.00 to 7.00 | 6.00 to 7.00 |  |  | 
CCc1ccc(NC(=O)Oc2cc(N3CCc4c(nc(OC[C@@H]5CCCN5C)nc4N4Cc5c(F)ncn5C[C@H]4C)C3)c3c(Cl)cccc3c2)cc1 [Compound 103] | ≥ 7.00 | ≥ 7.00 | ≥ 7.00 | ≥ 7.00 |  |  | 
